{
  "source": "ChEMBL document CHEMBL4602617",
  "about": "“Discovery and optimization of heteroaryl piperazines as potent and selective PI3Kδ inhibitors” (Bioorg Med Chem Lett, 2020)",
  "key": {"[1]": {"biological_target": "Ephrin type-B receptor 3 (Homo sapiens, UniProt P54753)", "sequence (P54753 whole entry, the tested form may be a part)": "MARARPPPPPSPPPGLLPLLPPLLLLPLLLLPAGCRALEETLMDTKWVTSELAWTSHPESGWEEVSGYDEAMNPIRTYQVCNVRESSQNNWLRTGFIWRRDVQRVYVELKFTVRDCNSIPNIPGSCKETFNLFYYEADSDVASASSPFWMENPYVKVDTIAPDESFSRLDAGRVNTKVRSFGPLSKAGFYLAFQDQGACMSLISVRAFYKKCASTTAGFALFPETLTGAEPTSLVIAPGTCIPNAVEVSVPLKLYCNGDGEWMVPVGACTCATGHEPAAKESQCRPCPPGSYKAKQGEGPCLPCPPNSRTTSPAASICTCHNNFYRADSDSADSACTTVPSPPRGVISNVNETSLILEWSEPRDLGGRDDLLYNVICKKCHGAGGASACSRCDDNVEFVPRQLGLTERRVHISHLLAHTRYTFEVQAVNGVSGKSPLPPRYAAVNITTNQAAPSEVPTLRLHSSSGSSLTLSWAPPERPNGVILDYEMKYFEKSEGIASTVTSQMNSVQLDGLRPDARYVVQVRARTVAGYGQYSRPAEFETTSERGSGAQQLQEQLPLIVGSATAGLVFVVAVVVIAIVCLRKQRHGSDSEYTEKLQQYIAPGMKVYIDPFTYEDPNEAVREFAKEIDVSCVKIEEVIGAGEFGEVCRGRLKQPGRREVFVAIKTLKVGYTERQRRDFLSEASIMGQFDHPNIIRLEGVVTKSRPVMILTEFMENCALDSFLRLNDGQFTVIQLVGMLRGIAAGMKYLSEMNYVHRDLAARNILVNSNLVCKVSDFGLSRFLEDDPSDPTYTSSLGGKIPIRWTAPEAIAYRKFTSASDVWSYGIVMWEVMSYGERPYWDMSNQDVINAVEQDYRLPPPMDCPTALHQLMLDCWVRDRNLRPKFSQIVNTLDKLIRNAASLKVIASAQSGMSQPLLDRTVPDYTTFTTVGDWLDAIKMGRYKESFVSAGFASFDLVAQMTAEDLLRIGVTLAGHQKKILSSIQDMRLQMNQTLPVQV", "test": "Inhibition of recombinant human GST-tagged EPHB3 catalytic domain expressed in baculovirus expression system using tyrosine-2 peptide as substrate incubated for 60 mins in presence of ATP by Z'-LYTE assay"}, "[2]": {"test": "Protein binding in dog plasma at 0.5 mg/kg, iv or 1 mg/kg, po", "format": "ADME, organism-based, Canis lupus familiaris", "conditions": "read-out: PPB (converted)"}, "[3]": {"biological_target": "Serine/threonine-protein kinase Chk1 (Homo sapiens, UniProt O14757)", "sequence (O14757 whole entry)": "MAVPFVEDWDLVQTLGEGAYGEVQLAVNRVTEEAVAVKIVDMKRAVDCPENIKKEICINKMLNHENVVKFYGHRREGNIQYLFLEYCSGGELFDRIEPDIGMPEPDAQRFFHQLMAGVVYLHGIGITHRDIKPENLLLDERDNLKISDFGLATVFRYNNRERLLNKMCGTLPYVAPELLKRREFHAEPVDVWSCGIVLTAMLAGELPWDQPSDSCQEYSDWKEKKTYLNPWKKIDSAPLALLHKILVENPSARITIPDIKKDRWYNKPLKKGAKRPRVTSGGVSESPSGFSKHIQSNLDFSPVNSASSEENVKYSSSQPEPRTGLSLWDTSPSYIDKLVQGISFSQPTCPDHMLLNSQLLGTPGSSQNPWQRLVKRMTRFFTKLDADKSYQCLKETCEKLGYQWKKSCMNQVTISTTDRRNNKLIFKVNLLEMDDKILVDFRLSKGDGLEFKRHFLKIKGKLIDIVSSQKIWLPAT", "test": "Inhibition of recombinant human full-length His-tagged CHEK1 expressed in baculovirus expression system using FRET-labeled Ser/Thr 19 peptide as substrate measured after 1 hr in presence of ATP by Z'-lyte assay"}, "[4]": {"biological_target": "MAP kinase-activated protein kinase 5 (Homo sapiens, UniProt Q8IW41)", "sequence (Q8IW41 whole entry)": "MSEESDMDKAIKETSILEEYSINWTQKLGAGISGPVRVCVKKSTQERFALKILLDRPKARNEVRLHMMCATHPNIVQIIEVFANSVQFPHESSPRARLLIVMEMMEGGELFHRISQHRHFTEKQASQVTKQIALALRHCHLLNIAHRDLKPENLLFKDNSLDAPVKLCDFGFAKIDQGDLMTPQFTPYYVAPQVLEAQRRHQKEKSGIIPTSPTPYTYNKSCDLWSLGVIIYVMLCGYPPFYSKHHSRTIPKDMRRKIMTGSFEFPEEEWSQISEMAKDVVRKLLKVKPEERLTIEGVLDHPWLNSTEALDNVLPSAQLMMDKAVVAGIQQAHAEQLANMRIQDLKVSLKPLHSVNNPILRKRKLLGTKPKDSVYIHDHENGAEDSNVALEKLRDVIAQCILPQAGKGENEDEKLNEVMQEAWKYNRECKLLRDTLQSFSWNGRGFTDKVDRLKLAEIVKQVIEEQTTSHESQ", "test": "Inhibition of recombinant full length human His-tagged PRAK expressed in baculovirus expression system using serine/threonine-4 peptide as substrate incubated for 60 mins in presence of ATP by Z'-LYTE assay"}, "[5]": {"test": "Half life in dog at 0.5 mg/kg, iv 1 mg/kg, po", "format": "ADME, organism-based, Canis lupus familiaris", "conditions": "in vivo"}, "[6]": {"biological_target": "Epidermal growth factor receptor (Homo sapiens, UniProt P00533, L858R/T790M)", "test": "Inhibition of human recombinant GST-tagged EGFR L858R/T790M mutant expressed in baculovirus expression system using tyrosine 4 peptide as substrate after 60 mins in presence of ATP FRET based Z'-LYTE assay"}, "[7]": {"biological_target": "Tyrosine-protein kinase receptor UFO (Homo sapiens, UniProt P30530)", "test": "Inhibition of recombinant full length human GST-tagged AXL expressed in insect expression system using tyrosine-6 peptide as substrate incubated for 60 mins in presence of ATP by Z'-LYTE assay"}, "[8]": {"biological_target": "Type-1 angiotensin II receptor (Homo sapiens) (UniProt P30556)", "test": "Displacement of [125I][Sar1,Ile8]-AT-II from full length human recombinant AT1 receptor expressed in CHOK1 cells at 10 uM measured after 120 mins by radiometric scintillation analysis relative to control", "format": "cell-based", "conditions": "CHO-K1"}, "[9]": {"biological_target": "High affinity nerve growth factor receptor (Homo sapiens, UniProt P04629)", "test": "Inhibition of recombinant human His-tagged NTRK1 cytoplasmic domain expressed in baculovirus expression system using FRET-labeled tyr 07 peptide as substrate measured after 1 hr in presence of ATP by Z'-lyte assay"}, "[10]": {"biological_target": "Corticotropin-releasing factor receptor 1 (Homo sapiens) (UniProt P34998)", "test": "Displacement of [125I](Tyr0)-CRF from recombinant full length human recombinant CRF1 expressed in CHO-K1 cells at 10 uM measured after 60 mins by radiometric scintillation analysis relative to control", "format": "cell-based"}, "[11]": {"biological_target": "Phosphorylase b kinase gamma catalytic chain, liver/testis isoform (Homo sapiens, UniProt P15735)", "test": "Inhibition of recombinant full length human N-terminal GST-tagged PHKG2 expressed in baculovirus expression system using serine/threonine-7 peptide as substrate incubated for 60 mins in presence of ATP by Z'-LYTE assay"}, "[12]": {"biological_target": "Tyrosine-protein kinase Lyn (Homo sapiens, UniProt P07948)", "test": "Inhibition of recombinant full length human His-tagged LYN-A expressed in baculovirus expression system using tyrosine-2 peptide as substrate incubated for 60 mins in presence of ATP by Z'-LYTE assay"}, "[13]": {"biological_target": "Casein kinase I isoform gamma-1 (Homo sapiens, UniProt Q9HCP0)", "sequence (Q9HCP0 whole entry, canonical isoform)": "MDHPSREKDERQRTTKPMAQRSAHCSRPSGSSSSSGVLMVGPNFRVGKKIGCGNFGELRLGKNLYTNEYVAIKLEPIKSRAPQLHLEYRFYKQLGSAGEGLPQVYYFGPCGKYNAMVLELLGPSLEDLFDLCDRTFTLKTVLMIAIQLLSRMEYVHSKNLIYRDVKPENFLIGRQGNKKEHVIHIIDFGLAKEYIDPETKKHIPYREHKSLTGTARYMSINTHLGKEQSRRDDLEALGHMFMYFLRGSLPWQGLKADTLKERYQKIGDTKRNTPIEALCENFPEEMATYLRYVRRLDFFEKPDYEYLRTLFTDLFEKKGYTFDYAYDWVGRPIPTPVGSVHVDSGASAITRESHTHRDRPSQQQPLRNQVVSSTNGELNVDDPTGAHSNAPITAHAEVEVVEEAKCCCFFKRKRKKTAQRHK", "test": "Inhibition of recombinant human full-length GST-tagged CSNK1G1 expressed in baculovirus expression system using FRET-labeled Ser/Thr 05 peptide as substrate measured after 1 hr in presence of ATP by Z'-lyte assay"}, "[14]": {"biological_target": "Serine/threonine-protein kinase SIK2 (Homo sapiens, UniProt Q9H0K1)", "test": "Inhibition of recombinant full length GST-tagged human SNF1LK2 expressed in baculovirus expression system using Ser/Thr 25 as substrate in presence of ATP after 1 hr by Z'LYTE assay"}, "[15]": {"biological_target": "Dual specificity tyrosine-phosphorylation-regulated kinase 1A (Homo sapiens, UniProt Q13627)", "test": "Inhibition of recombinant full length human GST-tagged DYRK1A expressed in baculovirus expression system using serine/threonine-18 peptide as substrate incubated for 60 mins in presence of ATP by Z'-LYTE assay"}, "[16]": {"biological_target": "Mitogen-activated protein kinase 12 (Homo sapiens, UniProt P53778)", "sequence (P53778 whole entry)": "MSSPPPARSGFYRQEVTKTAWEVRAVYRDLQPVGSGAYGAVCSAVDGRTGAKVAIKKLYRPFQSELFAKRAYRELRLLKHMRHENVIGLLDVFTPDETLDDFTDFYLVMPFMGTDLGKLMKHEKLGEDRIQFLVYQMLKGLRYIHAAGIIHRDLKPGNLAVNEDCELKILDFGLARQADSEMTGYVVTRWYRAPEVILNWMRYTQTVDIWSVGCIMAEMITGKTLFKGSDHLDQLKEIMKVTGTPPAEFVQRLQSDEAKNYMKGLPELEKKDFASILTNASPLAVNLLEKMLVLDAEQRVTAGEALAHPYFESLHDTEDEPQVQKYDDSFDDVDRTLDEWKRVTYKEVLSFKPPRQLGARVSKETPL", "test": "Inhibition of recombinant full length human His-tagged p38gamma expressed in baculovirus expression system using serine/threonine-3 peptide as substrate incubated for 60 mins in presence of ATP by Z'-LYTE assay"}, "[17]": {"biological_target": "Cyclin-dependent kinase 5/CDK5 activator 1 (Homo sapiens, UniProt Q00535)", "sequence (Q00535 whole entry)": "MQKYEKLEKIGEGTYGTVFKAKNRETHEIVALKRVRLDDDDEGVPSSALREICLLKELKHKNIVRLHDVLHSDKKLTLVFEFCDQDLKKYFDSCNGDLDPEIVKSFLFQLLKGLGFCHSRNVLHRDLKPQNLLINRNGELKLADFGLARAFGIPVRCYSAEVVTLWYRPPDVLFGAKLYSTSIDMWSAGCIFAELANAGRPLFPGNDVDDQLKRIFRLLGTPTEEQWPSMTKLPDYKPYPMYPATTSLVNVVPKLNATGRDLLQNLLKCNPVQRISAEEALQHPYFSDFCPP", "sequence (Q15078 whole entry, further chain)": "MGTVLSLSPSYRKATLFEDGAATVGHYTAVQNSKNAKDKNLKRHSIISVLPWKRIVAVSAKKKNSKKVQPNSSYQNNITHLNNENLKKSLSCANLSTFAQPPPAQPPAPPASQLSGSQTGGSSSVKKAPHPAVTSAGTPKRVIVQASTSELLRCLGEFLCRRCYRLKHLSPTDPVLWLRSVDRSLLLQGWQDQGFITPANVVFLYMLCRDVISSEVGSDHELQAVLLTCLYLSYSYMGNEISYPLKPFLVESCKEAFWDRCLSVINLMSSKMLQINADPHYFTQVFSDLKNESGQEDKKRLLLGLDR", "test": "Inhibition of recombinant full length human GST/His-tagged CDK5/p25 expressed in baculovirus expression system using serine/threonine-12 peptide as substrate incubated for 60 mins in presence of ATP by Z'-LYTE assay"}, "[18]": {"biological_target": "Insulin receptor (Homo sapiens, UniProt P06213)", "test": "Inhibition of recombinant human GST-tagged INSR cytoplasmic domain expressed in baculovirus expression system using tyrosine-1 peptide as substrate incubated for 60 mins in presence of ATP by Z'-LYTE assay"}, "[19]": {"biological_target": "Mu-type opioid receptor (Homo sapiens) (UniProt P35372)", "test": "Displacement of [3H]diprenorphine from full length human recombinant Mu opioid receptor expressed in CHO-K1 cells at 10 uM measured after 60 mins by radiometric scintillation analysis relative to control", "format": "cell-based"}, "[20]": {"biological_target": "Ephrin type-A receptor 1 (Homo sapiens, UniProt P21709)", "test": "Inhibition of recombinant human GST-tagged EPHA1 cytoplasmic domain (568 to 976 residues) expressed in baculovirus expression system using Tyr 02 as substrate after 1 hr in presence of ATP by Z'LYTE assay"}, "[21]": {"biological_target": "Mitogen-activated protein kinase 14 (Homo sapiens, UniProt Q16539)", "sequence (Q16539 whole entry)": "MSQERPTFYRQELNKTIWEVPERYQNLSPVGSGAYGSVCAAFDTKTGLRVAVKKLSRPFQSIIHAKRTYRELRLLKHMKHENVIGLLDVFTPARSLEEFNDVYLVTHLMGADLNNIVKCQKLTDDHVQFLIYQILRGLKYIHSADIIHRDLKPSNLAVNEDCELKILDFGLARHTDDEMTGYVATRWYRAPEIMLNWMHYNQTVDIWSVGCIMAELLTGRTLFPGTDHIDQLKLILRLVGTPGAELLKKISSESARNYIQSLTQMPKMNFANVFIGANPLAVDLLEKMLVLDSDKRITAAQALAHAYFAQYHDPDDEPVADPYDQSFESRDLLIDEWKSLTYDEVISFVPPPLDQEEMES", "test": "Inhibition of recombinant full length GST-tagged human inactive MAPK14 expressed in Escherichia coli using Ser/Thr 04 as substrate after 1 hr in presence of ATP by Z'LYTE assay"}, "[22]": {"biological_target": "Homeodomain-interacting protein kinase 3 (Homo sapiens, UniProt Q9H422)", "sequence (Q9H422 whole entry, the tested form may be a part)": "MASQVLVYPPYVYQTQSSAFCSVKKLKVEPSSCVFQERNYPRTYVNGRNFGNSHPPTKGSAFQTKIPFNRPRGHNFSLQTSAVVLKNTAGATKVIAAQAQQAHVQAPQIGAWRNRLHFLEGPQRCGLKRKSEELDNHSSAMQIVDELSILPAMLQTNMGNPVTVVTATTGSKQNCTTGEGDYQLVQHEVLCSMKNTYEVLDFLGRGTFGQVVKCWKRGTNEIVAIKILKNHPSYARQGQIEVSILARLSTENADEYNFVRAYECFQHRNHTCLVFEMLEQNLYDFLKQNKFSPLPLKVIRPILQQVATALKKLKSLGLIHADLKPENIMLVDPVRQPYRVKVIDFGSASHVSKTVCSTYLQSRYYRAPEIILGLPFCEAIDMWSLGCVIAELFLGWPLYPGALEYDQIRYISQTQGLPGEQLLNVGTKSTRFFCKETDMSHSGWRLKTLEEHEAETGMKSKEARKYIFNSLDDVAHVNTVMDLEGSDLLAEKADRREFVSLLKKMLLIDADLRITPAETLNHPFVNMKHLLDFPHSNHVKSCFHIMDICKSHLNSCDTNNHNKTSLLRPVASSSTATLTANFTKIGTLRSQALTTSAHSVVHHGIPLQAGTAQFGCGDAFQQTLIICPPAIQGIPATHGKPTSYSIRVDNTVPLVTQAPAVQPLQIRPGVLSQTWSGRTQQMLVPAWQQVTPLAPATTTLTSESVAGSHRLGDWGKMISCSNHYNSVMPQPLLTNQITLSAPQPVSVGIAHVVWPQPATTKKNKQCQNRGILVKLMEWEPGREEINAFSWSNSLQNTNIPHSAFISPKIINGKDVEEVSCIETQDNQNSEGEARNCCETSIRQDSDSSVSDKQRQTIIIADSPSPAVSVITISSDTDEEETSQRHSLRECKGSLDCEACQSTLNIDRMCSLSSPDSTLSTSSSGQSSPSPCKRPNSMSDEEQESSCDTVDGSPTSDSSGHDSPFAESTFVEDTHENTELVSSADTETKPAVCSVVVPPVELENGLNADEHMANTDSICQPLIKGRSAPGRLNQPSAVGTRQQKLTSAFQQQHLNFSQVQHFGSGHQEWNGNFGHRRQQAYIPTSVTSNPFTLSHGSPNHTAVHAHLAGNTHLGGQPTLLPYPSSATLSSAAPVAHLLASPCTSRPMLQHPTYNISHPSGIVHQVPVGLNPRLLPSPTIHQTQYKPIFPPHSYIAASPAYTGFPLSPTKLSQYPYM", "test": "Inhibition of recombinant human His-tagged HIPK3 catalytic domain expressed in baculovirus expression system using serine/threonine-9 peptide as substrate incubated for 60 mins in presence of ATP by Z'-LYTE assay"}, "[23]": {"biological_target": "Glutamate NMDA receptor (Rattus norvegicus) (UniProt P35439+Q00959+Q00960+Q00961+Q62645+Q8VHN2+Q9R1M7)", "test": "Displacement of [3H]TCP from glutamate NMDA receptor phencyclidine binding site in Wistar rat cerebral cortex at 10 uM incubated for 45 mins by radiometric scintillation analysis relative to control"}, "[24]": {"organism": "Rattus norvegicus", "test": "Inhibition of rat P2Y receptor at 10 uM relative to control"}, "[25]": {"biological_target": "Phosphodiesterase 3 (Homo sapiens) (UniProt Q14432+Q13370)", "test": "Inhibition of human platelet PDE3 at 10 uM using cAMP as substrate after 20 mins in presence of [3H]cAMP by radiometric scintillation assay relative to control"}},
  "data": [
    {"compound": "C[C@@H]1C[C@H]1C(=O)N1CCN(c2cnc(C#N)c(-c3cnn(C)c3)n2)C[C@H]1C", "values": [
      {"measurement": "IC50", "setting": "[1]", "result": "> 100", "unit": "µM"},
      {"measurement": "fraction unbound", "setting": "[2]", "result": 0.213},
      {"measurement": "IC50", "setting": "[3]", "result": "> 100", "unit": "µM"},
      {"measurement": "IC50", "setting": "[4]", "result": "> 100", "unit": "µM"},
      {"measurement": "half-life", "setting": "[5]", "result": 174, "unit": "min"},
      {"measurement": "IC50", "setting": "[6]", "result": "> 100", "unit": "µM"},
      {"measurement": "IC50", "setting": "[7]", "result": "> 100", "unit": "µM"},
      {"measurement": "inhibition", "setting": "[8]", "result": -4, "unit": "%"},
      {"measurement": "IC50", "setting": "[9]", "result": "> 100", "unit": "µM"},
      {"measurement": "inhibition", "setting": "[10]", "result": 6, "unit": "%"},
      {"measurement": "IC50", "setting": "[11]", "result": "> 100", "unit": "µM"},
      {"measurement": "IC50", "setting": "[12]", "result": "> 100", "unit": "µM"},
      {"measurement": "IC50", "setting": "[13]", "result": "> 100", "unit": "µM"},
      {"measurement": "IC50", "setting": "[14]", "result": "> 100", "unit": "µM"},
      {"measurement": "IC50", "setting": "[15]", "result": "> 100", "unit": "µM"},
      {"measurement": "IC50", "setting": "[16]", "result": "> 100", "unit": "µM"},
      {"measurement": "IC50", "setting": "[17]", "result": "> 100", "unit": "µM"},
      {"measurement": "IC50", "setting": "[18]", "result": "> 100", "unit": "µM"},
      {"measurement": "inhibition", "setting": "[19]", "result": 5, "unit": "%"},
      {"measurement": "IC50", "setting": "[20]", "result": 34, "unit": "µM"},
      {"measurement": "IC50", "setting": "[21]", "result": "> 100", "unit": "µM"},
      {"measurement": "IC50", "setting": "[22]", "result": "> 100", "unit": "µM"},
      {"measurement": "inhibition", "setting": "[23]", "result": -4, "unit": "%"},
      {"measurement": "inhibition", "setting": "[24]", "result": 34, "unit": "%"},
      {"measurement": "inhibition", "setting": "[25]", "result": 21, "unit": "%"}
    ]}
  ]
}
